Data on 1 cell line can be found in the supplement of paper PMC10307832.

Holding throughout (test): relative viability (nuclei count vs DMSO), 5 days (fraction); higher = more cells survive
Compound in the assay “AZ628 + Linsitinib”: CC1=C(C=C(C=C1)NC(=O)C2=CC(=CC=C2)C(C)(C)C#N)NC3=CC4=C(C=C3)N=CN(C4=O)C [AZ628] + C[C@]1(O)C[C@@H](c2nc(-c3ccc4ccc(-c5ccccc5)nc4c3)c3c(N)nccn32)C1 [Linsitinib] (partner 1 µM)
The method in brief:
(§1)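 Lung cancer cell lines were seeded in 1536-well plates and dosed by pin tool the next day, with either a single drug or a fixed anchor-drug dose combined with five library-drug doses (not always all listed) spaced in √10 steps. Five days later, one step fixed the cells and stained their nuclei (final 0.05% Triton X-100, 1% formaldehyde, 1 ug/ml Hoechst), and nuclei were counted on 4× images. Relative viability is the nuclei count in treated wells divided by the count in vehicle wells, and each value is the median of duplicate plates.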

Compound in the assay “QS11 + Pictilisib”: C1CC2=C(C1)C=C(C=C2)OC3=NC(=C4C(=N3)N(C=N4)CC5=CC=C(C=C5)C6=CC=CC=C6)N[C@@H](CC7=CC=CC=C7)CO [QS11] + CS(=O)(=O)N1CCN(Cc2cc3nc(-c4cccc5[nH]ncc45)nc(N4CCOCC4)c3s2)CC1 [Pictilisib] (partner 1 µM)
The method in brief:
as §1

Compound in the assay “AZ628 + Vorinostat”: CC1=C(C=C(C=C1)NC(=O)C2=CC(=CC=C2)C(C)(C)C#N)NC3=CC4=C(C=C3)N=CN(C4=O)C [AZ628] + O=C(CCCCCCC(=O)Nc1ccccc1)NO [Vorinostat] (partner 1 µM)
Put shortly: as §1

Compound in the assay “QS11 + Pemetrexed”: C1CC2=C(C1)C=C(C=C2)OC3=NC(=C4C(=N3)N(C=N4)CC5=CC=C(C=C5)C6=CC=CC=C6)N[C@@H](CC7=CC=CC=C7)CO [QS11] + Nc1nc2[nH]cc(CCc3ccc(C(=O)N[C@@H](CCC(=O)O)C(=O)O)cc3)c2c(=O)[nH]1 [Pemetrexed] (partner 0.2 µM)
The method in brief:
as §1

As to LCLC-97TM1, the relative viability is 0.212 with AZ628 + Linsitinib (first compound 0.08 µM); 0.24 in the assay with AZ628 + Linsitinib (first compound 0.253 µM); 0.179 with AZ628 + Linsitinib (first compound 0.8 µM); 0.202 in the assay with AZ628 + Linsitinib (first compound 2.53 µM); 0.136 with AZ628 + Linsitinib (first compound 8 µM); 0.14 with QS11 + Pictilisib (first compound 0.08 µM). Besides, the relative viability with QS11 + Pictilisib (first compound 0.253 µM) turned out to be 0.193; with QS11 + Pictilisib (first compound 0.8 µM) it was 0.209; with QS11 + Pictilisib (first compound 2.53 µM), 0.302; in the assay with QS11 + Pictilisib (first compound 8 µM), 0.289; with AZ628 + Vorinostat (first compound 0.08 µM) it was 1.03; with AZ628 + Vorinostat (first compound 0.253 µM) it was 0.729. The relative viability turned out to be 0.82 with AZ628 + Vorinostat (first compound 0.8 µM); 0.756 in the assay with AZ628 + Vorinostat (first compound 2.53 µM); 0.13 with AZ628 + Vorinostat (first compound 8 µM); 0.167 with QS11 + Pemetrexed (first compound 0.253 µM); 0.182 with QS11 + Pemetrexed (first compound 2.53 µM); 0.202 with QS11 + Pemetrexed (first compound 8 µM).
